Source: patent publication US11034718B2, “C-3 novel triterpenone with C-17 reverse amide derivatives as HIV inhibitors” (HETERO LABS LIMITED, priority 2015, dated 2021)
Like-named read-outs stand apart in the source and are kept apart here.

Assays:
HIV-1 pNL4-3 WT = assay: Antiviral activity against pNL4-3/WT strain in MT4 cells (p24 estimation); assay type: cell-based; details: Human immunodeficiency virus 1, MT4, 96 h, read-out: pNL4-3 WT IC50
Outline: (§1)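 MT4 cells infected with HIV-1 pNL4-3 WT or V7A (defined TCID50, 1.5 h, 37° C), plated at 3×10^4 cells/well with test compound, final DMSO ≤1%. After 4 days' culture, p24 in supernatant aliquots measured by kit.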

[1] = Single dose oral pharmacokinetic study; assay type: in vivo; details: mouse; Mice oral PK @30 mg/kg; plasma
Experimental: Example 80: Evaluation of Compounds Single Dose Oral Pharmacokinetic Study
The test item was administered through oral route to animals (rat/mice) at 30 mg/kg dose in a suitable vehicle (10% Solutol+20% PEG) at 10 ml/kg dose volume. Blood samples (˜50 μL at each time point) were collected from retro-orbital plexus using K3 EDTA as anticoagulant in eppendorf tubes at defined time intervals 30 minutes, 1 hour, 2 hour, 4 hour, 8 hour, 24 hour & 48 hour under light ether anaesthesia. The samples were centrifuged at 3500×g to separate plasma and stored at −80° C. until analysis. Plasma 25 μl for Mice were processed as per described in sample preparation.
Standard solutions of the test compound 1 mg/mL solutions were prepared in DMSO and further dilutions were made in methanol. The calibration curve samples for LCMSMS analysis were prepared by spiking 25 μl of Mice plasma with 2.5 μl and of the appropriate working standard solution to obtain final concentrations 0.078, 0.156, 0.312, 0.625, 1.25, 2.5, 5, 10, 20 & 40 μg/ml. To the test compound plasma extraction was carried out using Acetonitrile precipitation. After reconstitution with solvent (50% Acetonitrile in Buffer) samples were analyzed by LCMSMS to get the concentrations to calculate PK Parameters.

HIV-1 strain 92HT599 = assay: Antiviral activity against HIV-1 strain 92HT599 in MT2 cells (p24 estimation); assay type: cell-based; details: HIV-1 92HT599, ~96 hours
Outline: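 Percent inhibition versus vehicle controls came from p24 quantified in supernatant aliquots. These were taken after ~96 h incubation of compound (DMSO ≤1%) with MT2 cells infected at 10 TCID50/30,000 cells.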

HIV-1 pNL4-3 V7A = assay: Antiviral activity against pNL4-3/V7A strain in MT4 cells (p24 estimation); assay type: cell-based; details: Human immunodeficiency virus 1, MT4, 96 h, read-out: pNL4-3 V7A IC50
Outline: as §1

In the case of `CC(C)C1=C2[C@H]3CC[C@@H]4[C@@]5(C)CC[C@H](OC(=O)[C@H]6C[C@@H](C(=O)O)C6(C)C)C(C)(C)[C@@H]5CC[C@@]4(C)[C@]3(C)CC[C@@]2(NC(=O)C(C)(C)NS(=O)(=O)c2ccc(Cl)cc2)CC1=O` [Example 65, (1R,3S)-3-((((3aR,5aR,5bR,7aR,9S,11aR,11bR,13aS)-3a-(2-((4-chlorophenyl)sulfonamido)-2-methylpropanamido)-1-isopropyl-5a,5b,8,8,11a-pentamethyl-2-oxo-3,3a,4,5,5a,5b,6,7,7a,8,9,10,11,11a,11b,12,13,13a-octadecahydro-2H-cyclopenta[a]chrysen-9-yl)oxy)carbonyl)-2,2-dimethylcyclobutane-1-carboxylic acid], the IC50 (HIV-1 pNL4-3 WT) is reported as > 10 nM, the AUC(0-t) [1] is reported as 145 µg·h/mL and the Cmax [1] is reported as 7380 ng/mL. For the same compound, the IC50 (HIV-1 strain 92HT599; Human immunodeficiency virus 1, 0% serum binding assay, read-out: IC50 0% serum) was < 3 nM, the IC50 (HIV-1 strain 92HT599; Human immunodeficiency virus 1, 40% serum binding assay, read-out: IC50 40% serum) was < 50 nM and the IC50 (HIV-1 pNL4-3 V7A) was > 50 nM.
